*1 amine or outer side, *2 acyl side, *3 side chain or, on linkers, in order; H or OH if unused. Where a SMILES comes first, the peptide text is derived from it. Bridges are numbered along the chain shown (N, C = ends). Roman numbers before positions name the chains, in order. [ ]: non-standard residue; d: D form. Actinocin(1to9) = Cc1c2oc3c(C)ccc(C(=O)[*:2])c3nc-2c(C(=O)[*:1])c(N)c1=O; NMeV = CN[C@H](C(=O)O)C(C)C; Sar = CNCC(=O)O
Columns and labels:
[1] = target: 5-hydroxytryptamine receptor 4 (Cavia porcellus, UniProt O70528); format: cell membranes, Dunkin-Hartley, Striatum, Membrane; note: in other assays of this panel Not Active means under 50% inhibition at 10 µM
[2] = target: Kappa-type opioid receptor (Homo sapiens, UniProt P41145); test: DRUGMATRIX: Opiate kappa (OP2, KOP) radioligand binding (ligand: [3H] Diprenorphine); format: cell membranes, HEK293, Membrane; conditions: hek293; Not Active = under 50% inhibition at 10 µM
[3] = target: Aldo-keto reductase family 1 member B1 (Rattus norvegicus, UniProt P07943); test: biochemical; format: tissue-based, Lens of camera-type eye;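 note: inhibition of aldose reductase enzyme activity, measured with DL-glyceraldehyde as the substrate; in other assays of this panel Not Active means under 50% inhibition at 10 µM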
[4] = target: T1, Alpha-2C adrenergic receptor (Homo sapiens, UniProt P18825); test: DRUGMATRIX: Adrenergic Alpha-2C radioligand binding (ligand: [3H] MK-912); format: cell membranes, Sf9, Membrane
T1 sequence (P18825 whole entry): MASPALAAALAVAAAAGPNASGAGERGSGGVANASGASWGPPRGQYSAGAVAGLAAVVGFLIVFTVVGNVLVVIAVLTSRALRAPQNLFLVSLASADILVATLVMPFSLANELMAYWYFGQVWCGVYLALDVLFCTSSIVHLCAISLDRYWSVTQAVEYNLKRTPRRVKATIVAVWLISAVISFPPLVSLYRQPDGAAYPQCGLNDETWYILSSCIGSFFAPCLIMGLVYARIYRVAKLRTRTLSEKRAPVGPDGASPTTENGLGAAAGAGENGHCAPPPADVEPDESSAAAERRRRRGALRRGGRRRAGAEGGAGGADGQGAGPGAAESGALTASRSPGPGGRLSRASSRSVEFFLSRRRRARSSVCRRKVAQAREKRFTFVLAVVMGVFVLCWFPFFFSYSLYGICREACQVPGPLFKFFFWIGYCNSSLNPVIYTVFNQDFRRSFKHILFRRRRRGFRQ

[5] = DRUGMATRIX: Potassium Channel [KATP] radioligand binding (ligand: [3H] Glyburide); format: cell membranes, Membrane; conditions: hit-t15; Not Active = under 50% inhibition at 10 µM
[6] = target: Tyrosine-protein kinase Lck (Homo sapiens, UniProt P06239); test: DRUGMATRIX: Protein Tyrosine Kinase, LCK enzyme inhibition (substrate: Poly(Glu:Tyr)); format: cell-based, Insect cells; conditions: Not Active = under 50% inhibition at 10 µM
Tyrosine-protein kinase Lck, sequence (P06239 whole entry): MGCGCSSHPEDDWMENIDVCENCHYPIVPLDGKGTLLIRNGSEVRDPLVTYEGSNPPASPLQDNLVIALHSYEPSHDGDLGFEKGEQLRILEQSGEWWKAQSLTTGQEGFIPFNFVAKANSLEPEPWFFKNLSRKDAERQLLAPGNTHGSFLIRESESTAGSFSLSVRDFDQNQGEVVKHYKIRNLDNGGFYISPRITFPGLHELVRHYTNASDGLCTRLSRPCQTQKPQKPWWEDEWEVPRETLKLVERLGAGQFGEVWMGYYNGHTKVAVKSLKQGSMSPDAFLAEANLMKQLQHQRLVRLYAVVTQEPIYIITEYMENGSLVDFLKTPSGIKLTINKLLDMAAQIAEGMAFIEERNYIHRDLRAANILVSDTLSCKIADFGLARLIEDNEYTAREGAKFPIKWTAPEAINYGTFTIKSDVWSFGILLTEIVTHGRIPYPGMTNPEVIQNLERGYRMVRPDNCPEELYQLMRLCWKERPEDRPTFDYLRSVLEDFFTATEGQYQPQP

5-hydroxytryptamine receptor 4, sequence (O70528 whole entry): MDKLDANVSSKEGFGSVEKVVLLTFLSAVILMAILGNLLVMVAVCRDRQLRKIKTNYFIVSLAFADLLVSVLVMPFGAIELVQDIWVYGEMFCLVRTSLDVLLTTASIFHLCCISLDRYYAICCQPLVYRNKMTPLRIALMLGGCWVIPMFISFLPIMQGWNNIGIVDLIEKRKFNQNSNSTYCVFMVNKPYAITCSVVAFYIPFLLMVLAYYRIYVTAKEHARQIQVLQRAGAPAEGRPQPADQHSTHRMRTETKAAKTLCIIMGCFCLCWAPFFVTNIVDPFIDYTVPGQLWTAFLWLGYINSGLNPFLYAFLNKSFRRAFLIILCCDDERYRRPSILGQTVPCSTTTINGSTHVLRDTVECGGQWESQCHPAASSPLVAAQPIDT
Kappa-type opioid receptor, sequence (P41145 whole entry): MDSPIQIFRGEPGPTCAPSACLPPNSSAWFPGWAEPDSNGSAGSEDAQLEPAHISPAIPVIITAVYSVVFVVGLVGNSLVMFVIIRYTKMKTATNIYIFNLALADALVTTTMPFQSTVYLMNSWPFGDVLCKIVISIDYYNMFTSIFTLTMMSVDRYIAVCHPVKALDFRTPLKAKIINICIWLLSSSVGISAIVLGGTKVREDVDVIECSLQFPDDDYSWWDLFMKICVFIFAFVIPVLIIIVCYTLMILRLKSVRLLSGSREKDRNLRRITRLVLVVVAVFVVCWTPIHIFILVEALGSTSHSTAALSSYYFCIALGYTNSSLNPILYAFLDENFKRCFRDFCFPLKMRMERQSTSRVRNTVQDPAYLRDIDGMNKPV

Row | SMILES | IC50 [1] | IC50 [2] | IC50 [3] | IC50 ([4]; sf9) | IC50 [5] | Ki [5] | IC50 ([6]; insect cells) | IC50 ([4]; read-out: IC50) | Ki ([4]; read-out: Ki) | IC50 ([6]; read-out: IC50)
1 | CC(C)C(Br)C(=O)NC(N)=O (centres undefined) [BROMISOVALUM] | Not Active | Not Active | Not Active | Not Active | Not Active | Not Active | Not Active |  |  | 
2 | CCCC1O[C@@H]2C[C@H]3[C@@H]4CCC5=CC(=O)C=C[C@]5(C)[C@H]4[C@@H](O)C[C@]3(C)[C@]2(C(=O)CO)O1 (some centres undefined) [BUDESONIDE] | Not Active | Not Active | Not Active | Not Active | Not Active | Not Active | Not Active |  |  | 
3 | CC(NC(C)(C)C)C(=O)c1cccc(Cl)c1 (centres undefined) [BUPROPION] | Not Active | Not Active | Not Active | Not Active | Not Active | Not Active | Not Active |  |  | 
4 | CN(Cc1ccc(C(C)(C)C)cc1)Cc1cccc2ccccc12 [BUTENAFINE] | Not Active | Not Active | Not Active | Not Active | Not Active | Not Active | Not Active |  |  | 
5 | C[C@H](CS)C(=O)N1CCC[C@H]1C(=O)O [CAPTOPRIL] | Not Active | Not Active | Not Active | Not Active | Not Active | Not Active | Not Active |  |  | 
6 | Cc1ccc(-c2cc(C(F)(F)F)nn2-c2ccc(S(N)(=O)=O)cc2)cc1 [CELECOXIB] | Not Active | Not Active | Not Active | Not Active | Not Active | Not Active | Not Active |  |  | 
7 | C[C@H](CCC(=O)O)[C@H]1CC[C@H]2[C@@H]3[C@H](O)C[C@@H]4C[C@H](O)CC[C@]4(C)[C@H]3C[C@H](O)[C@]12C [CHOLIC ACID] | Not Active | Not Active | Not Active | Not Active | Not Active | Not Active | Not Active |  |  | 
8 | Cc1cc(C2CCCCC2)n(O)c(=O)c1 [CICLOPIROX] | Not Active | Not Active | Not Active | Not Active | Not Active | Not Active | Not Active |  |  | 
9 | CC(C)(Oc1ccc(Cl)cc1)C(=O)O [CLOFIBRIC ACID] | Not Active | Not Active | Not Active | Not Active | Not Active | Not Active | Not Active |  |  | 
10 | Clc1cccc(Cl)c1NC1=NCCN1 [CLONIDINE] | Not Active | Not Active | Not Active | Not Active | Not Active | Not Active | Not Active |  |  | 
11 | Cc1cc(C(C#N)c2ccc(Cl)cc2)c(Cl)cc1NC(=O)c1cc(I)cc(I)c1O (centres undefined) [CLOSANTEL] | Not Active | Not Active | Not Active |  | Not Active | Not Active |  | 7100 nM | 1000 nM | 1250 nM
12 | Cc1onc(-c2ccccc2Cl)c1C(=O)N[C@@H]1C(=O)N2[C@@H]1SC(C)(C)[C@@H]2C(=O)O [CLOXACILLIN] | Not Active | Not Active | Not Active | Not Active | Not Active | Not Active | Not Active |  |  | 
13 | CC1CC(OC(=O)C(O)c2ccccc2)CC(C)(C)C1 (centres undefined) [CYCLANDELATE] | Not Active | Not Active | Not Active | Not Active | Not Active | Not Active | Not Active |  |  | 
14 | Cc1c2oc3c(C)ccc(C(=O)N[C@@H]4C(=O)N[C@H](C(C)C)C(=O)N5CCC[C@H]5C(=O)N(C)CC(=O)N(C)[C@@H](C(C)C)C(=O)O[C@@H]4C)c3nc-2c(C(=O)N[C@@H]2C(=O)N[C@H](C(C)C)C(=O)N3CCC[C@H]3C(=O)N(C)CC(=O)N(C)[C@@H](C(C)C)C(=O)O[C@@H]2C)c(N)c1=O [DACTINOMYCIN] (I: T[dV]P[Sar][NMeV] / II: T[dV]P[Sar][NMeV]; ester I:1-I:C, II:1-II:C; linker I:N-II:N via Actinocin(1to9)) | Not Active | Not Active | Not Active | Not Active | Not Active | Not Active | Not Active |  |  | 

Source: ChEMBL document CHEMBL1909046, “DrugMatrix in vitro pharmacology data”
